The assay addresses 5-hydroxytryptamine receptor 4 (Rattus norvegicus, UniProt Q62758). Kind of assay: Agonist activity against serotonin 5-HT4 receptor in rat tunica muscularis mucosae assay.

In general, EC50 refers to the concentration at which the effect is half-maximal. High values mean a need for much substance, low ones an effect from little substance.

The structures appear in SMILES notation.

5-hydroxytryptamine receptor 4, sequence (Q62758 whole entry): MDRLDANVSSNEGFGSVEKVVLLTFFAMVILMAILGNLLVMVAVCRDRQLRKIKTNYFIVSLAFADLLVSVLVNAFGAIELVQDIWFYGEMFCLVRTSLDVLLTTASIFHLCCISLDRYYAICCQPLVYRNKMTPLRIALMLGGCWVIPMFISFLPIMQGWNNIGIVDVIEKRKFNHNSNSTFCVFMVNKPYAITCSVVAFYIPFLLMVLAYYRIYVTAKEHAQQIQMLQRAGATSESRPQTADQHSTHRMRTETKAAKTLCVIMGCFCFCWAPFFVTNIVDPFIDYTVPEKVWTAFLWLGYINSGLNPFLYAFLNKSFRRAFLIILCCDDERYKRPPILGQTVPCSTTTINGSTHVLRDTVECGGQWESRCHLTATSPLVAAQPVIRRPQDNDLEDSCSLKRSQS

Compound `COc1cc(N)c(Cl)cc1C(=O)NC1C2CC3CC1CN3C2` (configuration not stated) [4-Amino-N-(3-aza-tricyclo[3.3.1.0*3,7*]non-9-yl)-5-chloro-2-methoxy-benzamide] yielded an EC50 of 382 nM.
For `COc1cc(N)c(Cl)cc1C(=O)NCC1C2CC3CC1CN3C2` (configuration not stated) [4-Amino-N-(3-aza-tricyclo[3.3.1.0*3,7*]non-9-ylmethyl)-5-chloro-2-methoxy-benzamide], the EC50 is 660 nM.

For the origin of these results see BindingDB's records for doi:10.1016/S0960-894X(97)00408-3 (1997).
